Holding throughout (assay type): cell-based, human
The subject of one test is HIF-1α. Briefly: HIF-1α immunoblot of CD14+ and CD14− primary cells. Particulars: monocytes isolated from PBMCs then cultured 24 hours. As to the method:
Leukoreduction filters (Terumo BCT, Lakewood, Colo.), waste products of platelet donation process, were used to isolate PBMCs by an IRB-approved protocol. PBMCs were isolated using Histopaque-1077 (Sigma). Monocyte-enriched PBMCs (MEPs) were prepared using cold-aggregation method with slight modifications (30,60) Monocytes were isolated from MEPs or PBMCs using EasySep Human CD14 Positive Selection Kit (STEMCELL Technologies). Flow cytometric verification of isolated CD14+ cells were performed using RPCI core facility services. The MEPs were cultured at an average density of 25-35×10^6/ml in 1 or 2 ml per well in 6- or 12-well standard tissue culture plates under standard conditions (37° C./5% CO2) in RPMI-1640 medium with 10% FBS, 100 U/ml penicillin and […] streptomycin (Mediatech). Isolated CD14+ and CD14− cells were cultured at approximately 5×10^6 cell/ml and 7×10^6 cells per ml densities, respectively. THP-1 and TLA-HEK293T cell lines were purchased from ATCC, and Open Biosystems®, respectively, and cultured in recommended conditions. THP-1 cells were cultured in 10^6 cells per 100 μl in 96-well culture plates in ATCC-formulated-1640 medium (30-2001), whereas 293T cells were cultured in DMEM medium supplemented with 10% FBS.
Cells were cultured under 1% or 6% O2, 5% CO2 and 94% N2 at 37° C. using Xvivo System (Biospherix). Human ‘universal’ type I IFN was obtained from PBL Assay Science and used at 600 U/ml. Atpenin A5 (Cayman chemical #11898), myxothiazol (Sigma-Aldrich, #T5580) and 2-Thenoyltrifluoroacetone (TTFA) (Sigma-Aldrich, #T27006) were used at 1-2 μM and 400 μM final concentrations, respectively. DFO (Sigma-Aldrich #D9533) and DMOG (Sigma-Aldrich #D3695) were used in 0.5 mM and 1.0 mM final concentrations, respectively.
2× Laemmeli buffer (BIO-RAD) was used to prepare whole cell lysates. The lysate resuspended in the Laemmeli buffer was heated at 95° C. for 15 minutes, and 40 μl of the sample was used to perform gel electrophoresis on pre-cast, 4%-15% gradient polyacrylamide gels (Mini-PROTEAN TGX, Bio-Rad) in Laemmeli buffer system. Mouse monoclonal anti-HIF1α (product number GTX628480, GT10211; 1:1000 dilution) and mouse monoclonal anti-β-actin (product number AM4302, AC-15; 1:15,000 dilution) was used to detect HIF-1α or actin, respectively followed by incubation with HRP-conjugated goat anti-mouse antibodies (Life Technologies) at 1:2000 dilution.

Test [1] deals with hypoxia-response elements (HRE) from PGK1, a HIF-1α target gene. Briefly: HRE-luciferase reporter in HEK293T cells. Particulars: 293T, 6% O2, 24 hours. How it is done: It is possible that HIF-1α may have degraded depending on cell type, time of analysis (24 h) or another factor. Therefore, we further examined the effect of AtA5 in HEK293T embryonic kidney cell line and THP-1 monocytic leukemia cell line over a 24 hour period. Several studies in cell lines have reported normoxic stabilization of HIF-1α upon knocking down MTCII (Selak et al., (2005), Cancer. Cell, 7, 77-85, Guzy et al., (2008), Mol. Cell. Biol., 28, 718-731, Cervera et al., (2008), Cancer Res., 68, 4058-4067). […] Since AtA5 appeared to suppress HIF-1α in mild hypoxia, we exposed the cells to both 6% and 1% O2. […] To confirm the suppression of HIF-regulated gene expression, we used a plasmid construct expressing firefly luciferase under the control of three hypoxia-response elements […] from PGK1, a HIF-1α target gene.
HEK293T cells were cotransfected with the 400 ng of HRE-luciferase (Addgene, plasmid #26731), 1 ng of pRL-SV40 plasmid, 600 ng of pcDNA 3.1(+) (control empty vector) per well at ˜50-60% confluency using jetPRIME (Polyplus-transfection) in 12-well culture plates as per the manufacturer's instructions. Transfection efficiency was 60%-80% as assessed by fluorescent microscopy of cells co-transfected with the pLemiR plasmid DNA (Open Biosystems) for expression of a red fluorescent protein. Cells were harvested 2 days after transfection for measurement of their HRE and Renilla luciferase activities using Dual-Luciferase Reporter Assay System (Promega). HRE expression was quantified as a ratio of HRE/Renilla luciferase activities.

The test system of test [2] is hypoxia-regulated genes (HILPDA, VEGFA) in THP-1 cells. The test is described as follows: RT-qPCR of hypoxia-regulated genes in THP-1 cells. Conditions: THP-1, normoxia or hypoxia (1%), 24 hours, HILPDA and VEGFA. As to the method: Leukoreduction filters (Terumo BCT, Lakewood, Colo.), waste products of platelet donation process, were used to isolate PBMCs by an IRB-approved protocol. PBMCs were isolated using Histopaque-1077 (Sigma). Monocyte-enriched PBMCs (MEPs) were prepared using cold-aggregation method with slight modifications (30,60) Monocytes were isolated from MEPs or PBMCs using EasySep Human CD14 Positive Selection Kit (STEMCELL Technologies). Flow cytometric verification of isolated CD14+ cells were performed using RPCI core facility services. […]
RNA and plasmid DNA were isolated with commercial kits (TRIzol, Life Technologies and Qiagen, respectively). RNA/DNA was quantified by Nanodrop 2000 (Thermo Fisher). Proteins were quantified using Bio-Rad Dc assay with BSA standards. […] SDHB c.136C>U RNA editing was quantified by allele specific RT-qPCR PCR oligonucleotide primers (FIG. 13) were obtained from Integrated DNA Technologies, Inc. ADM, ELL2, HILPDA, NGLY1, MET, TKTL1, VEGFA and B2M gene expression levels was assessed by qPCR using FastStart Taq DNA polymerase and SYBR Green I dye on a LightCycler 480 System (Roche). Quantification cycle values were calculated by the instrument software using the maximum second derivative method and the mean quantification cycle value of duplicate PCR reactions was used for analysis. […]

The test system of test [3] is hypoxia-related gene expression in CD14+ monocytes. The test is described as follows: Gene expression in CD14+ monocytes (RNA seq, RT-qPCR).

As for `COc1[nH]c(O)c(C(=O)[C@@H](C)C[C@H](C)[C@@H](Cl)CCl)c(=O)c1OC` [AtA5, 3-((2S,4S,5R)-5,6-dichloro-2,4-dimethylhexanoyl)-2-hydroxy-5,6-dimethoxypyridin-4(1H)-one], the “HIF-1α stabilization (western blot)” value was “appeared to enhance the stabilization of HIF-1α in hypoxic monocytes in two of three donors” in the test on HIF-1α (hypoxia (1% O2), three donors) and “did not robustly stabilize HIF-1α” with HIF-1α (normoxia). Moreover, the “HRE-driven expression (ratio of HRE/Renilla luciferase activities)” value in test [1] is reported as “statistically significantly suppressed”. Further, the “expression of hypoxia-regulated genes” value in test [2] was “suppressed”. For the same molecule, the “expression of selected genes (ADM, ELL2, HILPDA, NGLY1, MET, TKTL1 and VEGFA), RT-qPCR” value in test [3] (CD14+ cells, AtA5/normoxia day 2) is “induction of selected highly-expressed genes”. The “transcriptional upregulation of A3A” value in test [3] (CD14+ cells, AtA5/normoxia, RNA seq) is recorded as “without transcriptional upregulation of A3A”. In test [3] (CD14+ cells, RNA seq analysis), the “RNA editing in genes other than SDHB” value is “induction of RNA editing in genes other than SDHB”. For the same molecule, the “mRNA expression of VEGFA and HILPDA” value in test [3] (isolated CD14+ monocytes, normoxia, 1 day, n=3 donors) was “statistically significantly increased”.
